Test results published in US12479816B2, “20-HETE formation inhibitors” (UNIVERSITY OF PITTSBURGH—OF THE COMMONWEALTH SYSTEM OF …, priority 2019, dated 2025).

Key:
[1] = test system: 20-HETE formation (CYP4) in HLM; assay: Inhibition of 20-HETE formation at 250 or 500 nM in HLM microsomal incubations; type: biochemical, human; details: 500 nM compound; HLM 300 μg/ml, AA 100 μM, 20 min
Description: (§1) To screen the inhibitory effects against 20-HETE formation, compounds were screened in HLM, RLM, RKM and rCYP4F2 microsomal incubations. Compounds dissolved in either 100% methanol or 100% DMSO to yield 10 mM stock solution. Microsomal incubations containing HLM, RLM, RKM (300 μg/ml) or rCYP4F2 (25 pmol/mL), AA (100 μM), NADPH (1 mM) treated with test compounds at various concentrations (500 nM or 250 nM) in a 1 ml total volume in incubation buffer (0.12 M potassium phosphate buffer containing 5 mM magnesium chloride). Reaction was started by adding NADPH to the incubates and was carried out at 37° C. in a shaking water bath for 20 min. Reaction was stopped by placing tubes on ice, followed by adding 125 μl 20-HETE-d6 as internal standard to each sample. Microsomal incubations were extracted with 3 ml ethyl ether twice, dried down under nitrogen gas and reconstituted in 125 μl 80:20 methanol:deionized H2O for analysis. 20-HETE formation was quantified using a validated UPLC-MS/MS assay and normalized by vehicle group. Each compound had three replications (n=3). Vehicle group was used as control to calculate percentage of 20-HETE formation rate. HET0016 (250 nM) was used as positive control. Incubates without NADPH group served as the negative control. An Acquity ultra performance LC autosampler (Waters, Milford, MA) was used to isolate 20-HETE on an UPLC BEH C18, 1.7 μm (2.1×100 mm) reversed-phase column (Waters, Milford, MA) protected by a guard column (2.1×5 mm; Waters, Milford, MA) of the same packing material. Column temperature was maintained at 55° C. Mobile phases consisted of 0.005% acetic acid, 5% acetonitrile in deionized water (A) and 0.005% acetic acid in acetonitrile (B). The flow rate for mobile phases is 0.5 ml/min. The initial mixture of mobile phase was 65:35 of A and B. Mobile phase B increased at 0.4 minutes after injection from 35% to 70% in a linear gradient over 4 minutes, and again increased to 95% over 0.5 minutes where it remained for 0.3 minutes. This was followed by a linear return to initial conditions over 0.1 minutes with a 1.5 minute pre-equilibration period prior to the next sample run. Total run time was 6.4 minutes for each injection. Injection volumes were 7.5 μl. Mass spectrometric analysis was carried out using a TSQ Quantum Ultra (Thermo Fisher Scientific, San Jose, CA) triple quadrupole mass spectrometer using heated electrospray ionization (HESI). Mass spectrometer was operated in negative selective reaction monitoring (SRM) mode with unit resolutions at both Q1 and Q3 set at 0.70 Da full width at half maximum. Scan time was set at 0.01 s and collision gas pressure was 1.3 mTorr. Quantitation of 20-HETE by SRM was performed by monitoring the m/z. Analytical data was acquired and analyzed using Xcaliber 3.0 data system (ThermoFinnigan, San Jose, CA).

rCYP4F2 = target: T1, rCYP4F2 (Homo sapiens, UniProt P78329); assay: Inhibition of 20-HETE formation at 250 or 500 nM in rCYP4F2 incubations; type: biochemical; details: 500 nM compound; rCYP4F2 25 pmol/mL; read-out: rCYP4F2 % inh. @ 500 nM
T1 sequence (P78329 5-520): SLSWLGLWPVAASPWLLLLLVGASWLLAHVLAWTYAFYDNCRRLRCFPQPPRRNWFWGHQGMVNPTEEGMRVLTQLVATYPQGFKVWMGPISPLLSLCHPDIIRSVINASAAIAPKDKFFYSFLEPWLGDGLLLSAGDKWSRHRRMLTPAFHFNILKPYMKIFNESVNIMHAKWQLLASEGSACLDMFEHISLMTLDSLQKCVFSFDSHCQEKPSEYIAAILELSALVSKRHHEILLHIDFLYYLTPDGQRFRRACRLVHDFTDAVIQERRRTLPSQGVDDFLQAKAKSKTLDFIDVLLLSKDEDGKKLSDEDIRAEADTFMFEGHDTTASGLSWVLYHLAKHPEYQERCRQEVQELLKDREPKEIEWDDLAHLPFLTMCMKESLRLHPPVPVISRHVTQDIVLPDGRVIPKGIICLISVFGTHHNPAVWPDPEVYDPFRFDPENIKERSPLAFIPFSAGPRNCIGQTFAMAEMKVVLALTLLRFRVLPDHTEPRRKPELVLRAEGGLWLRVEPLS
Description: as §1

[2] = test system: 20-HETE formation (CYP4) in RLM; assay: Inhibition of 20-HETE formation at 250 or 500 nM in RLM microsomal incubations; type: biochemical, rat; details: 500 nM compound; RLM 300 μg/ml
Description: as §1

SMILES | HLM % inh. @ 500 nM [1] | inhibition at 0.5 µM (rCYP4F2) | RLM % inh. @ 500 nM [2]
COc1ccc(SC2CCN(c3ccn[nH]3)CC2)cc1 [Compound 68, 4-((4-Methoxyphenyl)thio)-1-(1H-pyrazol-5-yl)piperidine] | 48% | 70.9% | 0%
O=C(c1ccc(C2CCN(c3ccn[nH]3)CC2)cc1)N1CCCC1 [Compound 78, (4-(1-(1H-Pyrazol-5-yl)piperidin-4-yl)phenyl)(pyrrolidin-1-yl)methanone] | 83.6% | 31% | 0.00%
COc1ccccc1C1CCN(c2ccn[nH]2)CC1 [Compound 21, 4-(2-Methoxyphenyl)-1-(1H-pyrazol-5-yl)piperidine] | 8.80% | 2% | 0.00%
COC(=O)c1cccc(C2CCN(c3cn[nH]c3)CC2)c1 [Compound 57, Methyl 3-(1-(1H-pyrazol-4-yl)piperidin-4-yl)benzoate] | 0.00% | 41.2% | 43.10%
COC(=O)c1cccc(C2CCN(c3ccn[nH]3)CC2)c1 [Compound 56, Methyl 3-(1-(1H-pyrazol-5-yl)piperidin-4-yl)benzoate] | 0.00% | 11.4% | 0.00%
COc1cccc(SC2CCN(c3cn[nH]c3)CC2)c1 [Compound 76, 4-((3-Methoxyphenyl)thio)-1-(1H-pyrazol-4-yl)piperidine] | 84% | 71% | 0.00%
c1ccc(SC2CCN(c3ccn[nH]3)CC2)cc1 [Compound 39, 4-(Phenylthio)-1-(1H-pyrazol-5-yl)piperidine] | 6.00% | 22.7% | 0.00%
O=S(=O)(c1ccc(C2CCN(c3cn[nH]c3)CC2)cc1)N1CCCC1 [Compound 85, 1-(1H-Pyrazol-4-yl)-4-(4-(pyrrolidin-1-ylsulfonyl)phenyl)piperidine] | 81.3% | 64% | 0.00%
COc1ccc(CC2CCN(c3ccn[nH]3)CC2)cc1 [Compound 79, 4-(4-Methoxybenzyl)-1-(1H-pyrazol-5-yl)piperidine] | 60% | 62% | 4.00%
COc1ccccc1C1CCN(c2cn[nH]c2)CC1 [Compound 22, 4-(2-Methoxyphenyl)-1-(1H-pyrazol-4-yl)piperidine] | 0.00% | 0% | 0.00%
Cc1cc(N2CCC(c3ccccc3)CC2)[nH]n1 [Compound 38, 1-(5-Methyl-1H-pyrazol-5-yl)-4-phenylpiperidine] | 0.00% | 22.3% | 0.00%
O=C(c1ccc(C2CCN(c3ccn[nH]3)CC2)c(F)c1)N1CCCC1 [Compound 82] | 75% | 36% | 2.00%
Clc1cccc(CC2CCN(c3ccn[nH]3)CC2)c1 [Compound 91, 4-(3-Chlorobenzyl)-1-(1H-pyrazol-5-yl)piperidine] | 40.4% | 39.1% | 0.00%
Cc1n[nH]cc1N1CCC(c2ccccc2)CC1 [Compound 37, 1-(3-Methyl-1H-pyrazol-4-yl)-4-phenylpiperidine] | 0.00% | 31.9% | 0.00%

Now from value to compound:

HLM % inh. @ 500 nM [1] | inhibition at 0.5 µM (rCYP4F2) | RLM % inh. @ 500 nM [2] | SMILES
36.50% | 27.9% | 0.00% | O=S1(=O)CCc2cc(C3CCN(c4cn[nH]c4)CC3)ccc21 [Compound 102, 5-(1-(1H-Pyrazol-4-yl)piperidin-4-yl)-2,3-dihydrobenzo[b]thiophene 1,1-dioxide]
61.3% | 60.3% | 13.50% | Cc1cccc(CC2CCN(c3cn[nH]c3)CC2)c1 [Compound 94, 4-(3-Methylbenzyl)-1-(1H-pyrazol-4-yl)piperidine]
43.5% | 60.1% | 22.30% | O=[N+]([O-])c1ccc(C2CCN(c3cn[nH]c3)CC2)cc1 [Compound 111, 4-(4-Nitrophenyl)-1-(1H-pyrazol-4-yl)piperidine]
17.70% | 0% | 0.00% | COc1cc(CC2CCN(c3ccn[nH]3)CC2)ccn1 [Compound 99, 4-((1-(1H-Pyrazol-5-yl)piperidin-4-yl)methyl)-2-methoxypyridine]
37.20% | 25% | 5.00% | COc1cc(CC2CCN(c3cn[nH]c3)CC2)ccn1 [Compound 98, 4-((1-(1H-Pyrazol-4-yl)piperidin-4-yl)methyl)-2-methoxypyridine]
30.5% | 67.6% | 14.30% | CS(=O)(=O)Nc1ccc(C2CCN(c3cn[nH]c3)CC2)cc1 [Compound 113, N-(4-(1-(1H-pyrazol-4-yl)piperidin-4-yl)phenyl)methanesulfonamide]
0.00% | 0% | 0.00% | O=S1(=O)CCc2cc(C3CCN(c4ccn[nH]4)CC3)ccc21 [Compound 106, 5-(1-(1H-Pyrazol-5-yl)piperidin-4-yl)-2,3-dihydrobenzo[b]thiophene 1,1-dioxide]
0.00% | 0% | 0.00% | FC(F)(F)c1cncc(C2CCN(c3ccn[nH]3)CC2)c1 [Compound 103, 3-(1-(1H-Pyrazol-5-yl)piperidin-4-yl)-5-(trifluoromethyl)pyridine]
77.30% | 78% | 17.00% | Nc1ccc(C2CCN(c3cn[nH]c3)CC2)cc1 [Compound 105, 4-(1-(1H-pyrazol-4-yl)piperidin-4-yl)aniline]
21.90% | 41.3% | 20.30% | O=[N+]([O-])c1ccc(C2CCN(c3ccn[nH]3)CC2)cc1 [Compound 112, 4-(4-Nitrophenyl)-1-(1H-pyrazol-5-yl)piperidine]
42.8% | 26.3% | 15.40% | FC(F)(F)c1cncc(C2CCN(c3cn[nH]c3)CC2)c1 [Compound 95, 4 3-(1-(1H-Pyrazol-4-yl)piperidin-4-yl)-5-(trifluoromethyl)pyridine]
77.3% | 87.1% | 0.00% | Fc1ccccc1SC1CCN(c2cn[nH]c2)CC1 [Compound 92, 4-((2-Fluorophenyl)thio)-1-(1H-pyrazol-4-yl)piperidine]
63.10% | 16.4% | 0.00% | O=S(=O)(c1ccc(C2CCN(c3ccn[nH]3)CC2)cc1)N1CCCC1 [Compound 96, 1-(1H-Pyrazol-5-yl)-4-(4-(pyrrolidin-1-ylsulfonyl)phenyl)piperidine]
